# Results as given in patent US20240067682A1, “PEPTIDE HAVING PLANT STEM CELL-INDUCING EFFECT AND PLANT PEST RESISTANCE-INDUCING EFFECT” (KYOTO PREFECTURAL PUBLIC UNIVERSITY CORPORATION, priority 2020, published 2024).
# Columns and labels:
# [1] = tested on: Arabidopsis thaliana expressing stem cell marker PLT1-GFP; test: Stem cell induction in Arabidopsis thaliana roots expressing stem cell marker PLT1-GFP (confocal imaging); format: in vivo; conditions: 600 nM peptide aqueous solution, immersion 2 days
# Experimental: Arabidopsis thaliana roots were treated with CAP peptide ([…]). Arabidopsis thaliana expressing stem cell marker PLT1-GFP was immersed in water or a 600 nM peptide aqueous solution for 2 days, and GFP fluorescent images and bright field images were obtained with a confocal laser microscope.
# [2] = tested on: genes related to freezing tolerance and drought tolerance; test: RNA-seq gene expression after 4 hours immersion in CAP peptide; format: in vivo, Arabidopsis thaliana; conditions: 600 nM, immersion 4 hours, vs water
# Experimental: RNA of Arabidopsis thaliana immersed in water or a 600 nM CAP peptide solution for 4 hours was extracted, and gene expression was compared by RNA-seq analysis. Network analysis was then performed on genes with increased expression.
# [3] = tested on: wild-type Arabidopsis thaliana seeds; test: Osmotic and drought tolerance: growth of peptide-immersed seeds on excess mannitol- or sorbitol-containing medium; format: in vivo
# Experimental: Next, wild-type Arabidopsis thaliana seeds were immersed in water (Control) or 600 nM CAP peptide for 5 minutes and then grown on an excess mannitol-containing medium. Further, wild-type Arabidopsis thaliana seeds were immersed in water (Control) or 600 nM CAP peptide overnight, and then grown on an excess sorbitol-containing medium.
# [4] = tested on: genes related to disease resistance; test: RNA-seq gene expression after 48 hours immersion in CAP peptide; format: in vivo, Arabidopsis thaliana; conditions: 600 nM, immersion 48 hours, vs water
# Experimental: RNA of Arabidopsis thaliana immersed in water or a 600 nM CAP peptide solution for 48 hours was extracted, and gene expression was compared by RNA-seq analysis. Network analysis was then performed.
# [5] = tested on: Pseudomonas syringae pv tomato DC3000; test: DC3000 infection of Arabidopsis thaliana leaves sprayed with 600 nM CAP peptide, bacterial count; format: in vivo; conditions: leaves sprayed with 600 nM CAP peptide/0.02% Silwet L-77 24 hours before infection; counted 2 days after infection
# Experimental: Next, Arabidopsis thaliana leaves were sprayed with water/0.02% Silwet L-77 (Control) or 600 nM CAP peptide/0.02% Silwet L-77, and 24 hours later, infected with Pseudomonas syringae pv tomato DC3000 (DC3000) with an OD600 of 0.2×10^−3. 2 days later, DC3000 obtained from leaf fragments cut into 4-mm-diameter circles was diluted and spotted on LB medium containing kanamycin. After incubation at 28° C. for 24 hours, the number of bacteria per unit area was counted.
# [6] = tested on: Pseudomonas syringae DC3000; test: DC3000 inoculation of Arabidopsis thaliana leaves applied with 60 nM CAP peptide; format: in vivo
# Experimental: Arabidopsis thaliana leaves applied with water or 60 nM CAP peptide were inoculated with Pseudomonas syringae DC3000.
# [7] = tested on: Pseudomonas syringae pv tomato DC3000; test: DC3000 inoculation of Brassica rapa leaves sprayed with 60 nM CAP peptide; format: in vivo
# Experimental: Brassica rapa leaves were sprayed with water or a 60 nM CAP peptide solution in advance, and one day later, inoculated with plant pathogen Pseudomonas syringae pv tomato DC3000 (DC3000). 2 days after infection, DC3000 obtained from leaf fragments cut into 4-mm-diameter circles was diluted, spotted on LB medium containing kanamycin, and incubated at 28° C. for 24 hours.
# [8] = tested on: Arabidopsis thaliana seeds; test: Germination of Arabidopsis thaliana seeds harvested 10 years before; format: in vivo; conditions: seeds immersed in 1, 10 or 100 μM CAP peptide for 2 hours; measured 2 weeks after sowing
# Experimental: Arabidopsis thaliana seeds harvested 10 years before and not naturally germinated were immersed in 0, 1, 10, or 100 μM CAP peptide for 2 hours and then sown. The germination rate was measured 2 weeks later.
# [9] = tested on: Rorippa aquatica; test: Agrobacterium transformation of Rorippa aquatica in the presence of CAP peptide; format: in vivo; conditions: 1 μM CAP peptide mixed with Agrobacterium carrying GFP-TUB6 plasmid
# Experimental: Agrobacterium introduced with a plasmid expressing GFP-TUB6 protein was mixed with CAP peptide to final concentrations of 50 nM, 1 μM, and 10 μM, and transformed into Rorippa aquatica.
# [10] = tested on: Cherry tomato Sun Cherry seedlings; test: Growth promotion of cherry tomato Sun Cherry seedlings; format: in vivo; conditions: 1 μM CAP peptide sprayed twice (Jul. 21 and July 28); t-test p<0.05
# Experimental: Cherry tomato Sun Cherry seedlings were purchased, sprayed with 1 μM CAP peptide on Jul. 21, 2021, and then grown in planters in an alley. The second 1 μM CAP peptide treatment was performed on July 28.
# [11] = tested on: Pseudomonas syringae pv tomato DC3000; test: Disease tolerance test with CAP6 peptide: DC3000 infection of sprayed Arabidopsis thaliana leaves; format: in vivo; conditions: 60 nM CAP6 peptide/0.02% Silwet L-77 sprayed 48 hours before infection; counted one day after infection
# Experimental: Multiple types (76 types) of CAP proteins derived from Schlechtendalia chinensis, Caloptilia cecidophora, Borboryctis euryae, Caloptilia ryukyuensis, Rhus javanica, and Arabidopsis thaliana were aligned. From the consensus sequence (FIG. 9), FTQIVW (SEQ ID NO: 21) was determined (hereinafter referred to as “CAP6 peptide”). Then, Arabidopsis thaliana leaves were sprayed with 0.02% Silwet L-77 (Control), 60 nM CAP peptide/0.02% Silwet L-77, or 60 nM CAP6 peptide/0.02% Silwet L-77, and 48 hours later, infected with Pseudomonas syringae pv tomato DC3000 (DC3000) with an OD600 of 0.2×10^−3. One day later, DC3000 obtained from leaf fragments cut into 5-mm-diameter circles was diluted and spotted on LB medium containing kanamycin. 24 hours later, the number of bacteria per unit area was counted.
substance,measurement,setting,value
"TQVVWKSTTNIGVGILIVNGTV (partial peptide of CAP) [CAP peptide, synthetic peptide from the conserved region of insect CAP (cysteine-rich secretory protein, antigen 5, and pathogenesis-related 1)]",transformation of differentiated cells into stem cells,[1]; PLT1-GFP marker,differentiated cells were transformed into stem cells
same,induction of gall-like structure,[1]; roots,induced a gall-like structure
same,increase in expression of genes related to freezing tolerance and drought tolerance,[2],≥ 2 factor
same,root extension on excess mannitol-containing medium vs control,"[3]; 600 nM, 5 minutes immersion, high-osmotic pressure conditions",extended more
same,root extension on excess sorbitol-containing medium vs control,"[3]; 600 nM, overnight immersion, dry conditions",extended more
same,"growth on excess mannitol-containing medium, mean value","[3]; seeds immersed in 600 nM CAP peptide for 5 minutes, high-osmotic pressure conditions, FIG. 3 upper",11.69 (S.D.=1.55)
same,"growth on excess sorbitol-containing medium, mean value","[3]; seeds immersed in 600 nM CAP peptide overnight, dry conditions, FIG. 3 lower",7.71 (S.D.=1.39)
same,increase in expression of genes related to disease resistance,[4],2 to 3 factor
same,growth of bacteria after infection,[5],suppressed the growth of bacteria
same,growth of the pathogen,[6]; 4 days after infection,significantly inhibited
same,plant body growth vs water treatment,[6]; 13 days after infection,grew much larger
same,seed yield vs water treatment,[6]; 13 days after pathogen infection,yielded more seeds
same,freshness after pathogen treatment vs water treatment,[7]; 60 nM CAP peptide sprayed one day before inoculation,freshness was maintained for a longer period of time
same,inhibition of bacterial growth compared with water treatment,"[7]; 60 nM CAP peptide, 2 days after pathogen inoculation",≥ 1000 times
same,germination rate compared with gibberellin treatment,[8],much higher germination rate
same,transformation efficiency,[9],high efficiency transformation
same,effect of promoting stem extension compared with CAP-untreated group,[10],significantly confirmed
FTQIVW (consensus sequence of CAP) [CAP6 peptide],disease tolerance effect,[11],a remarkable effect was obtained
